The experiment has as its system healthy adult cats. In words: Hair 18-MEA content after feeding amino acid supplemented diets to healthy cats. Type of experiment: in vivo, cat. The conditions noted are these: versus control base diet, regression model with base line as covariant; p<0.05 for isoleucine and threonine, p>0.05 for leucine. From the text:
The hair was clipped from the left middle flank areas of 24 healthy adult cats. The clipped regions measured approximately 20.32 cm by 10.16 cm (about 8 inches by about 4 inches). Hair was clipped as close to the skin as possible. The cats were then fed a base diet consisting of a commercially available nutritionally complete food for a period of 90 days. The nutrient content of the base food is set out in Table 1. On day 90, newly grown hair was clipped from the left middle flanks of the cats. The clipped regions measured approximately 19.05 cm by 8.89 cm (about 7.5 inches by about 3.5 inches). Samples of the clipped hair from each cat were retained and analysed for their 18-MEA content in order to determine the base line levels. The cats were divided into four groups of 6. The age, sex and nurturing status of the cats were balanced between the groups. The groups were randomly assigned a diet selected from the base diet, the base diet plus supplemental leucine, the base diet plus supplemental isoleucine, and the base diet plus supplemental threonine as shown in Table 2. The groups were fed the assigned diets for 90 days. On day 180, the newly grown hair was clipped from the left middle flanks of the cats. The clipped regions measured approximately 17.78 cm by 7.62 cm (about 7 inches by about 3 inches). Samples of clipped hair from each cat were retained and analysed for 18-MEA content. For the 18-MEA analysis, hair samples were first washed with circulating ethyl ether for 6 hours to remove the surface lipids and oils. The hair samples were cut into pieces about 5 mm in length or less, digested and extracted for 18-MEA that was measured with a gas chromatograph. The 18-MEA data were analysed using a regression model. Hair 18-MEA content was the dependent variable, and diet was used as the independent variable. The base line data were used as the covariant.

Entries after “also recorded” stand apart in the source; their conditions may differ.

Consider `CC(C)C[C@H](N)C(=O)O` [Leucine, leucine, reference compound], for which the “Effect on 18-MEA concentration of the hair” value is reported as “no significant effect”.
Turning to `CC[C@H](C)[C@H](N)C(=O)O` [isoleucine, (2S, 3S)-2-amino-3-methylpentanoic acid], the “Effect on 18-MEA concentration of the hair” value is “increase; also recorded: significantly increased”.
The result for `C[C@@H](O)[C@H](N)C(=O)O` [threonine, (2S, 3R)-2-amino-3-hydroxybutanoic acid] reads “increase; also recorded: significantly increased”.
